# pEC50: −log10 of the molar value.
# What was measured:
# HCV genotype 1b replicon = HCV genotype 1b replicon assay (Renilla luciferase readout); type: cell-based, hepatitis C virus; conditions: for Genotype 1b: HCV genotype 1b replicon; for pEC50: Hepatitis C virus, read-out: Genotype 1b
# How it was run: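 Reported as pEC50 derived from a 4-parameter fit of Renilla luciferase activity against concentration. Replicon cells (APC144, Huh7 background) were exposed to compound for 48 h in G418-free medium with final 0.5% DMSO, after seeding at 10,000 cells/well and 4 h adherence.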
# HCV genotype 1a replicon = HCV genotype 1a replicon assay (NS3 protease activity readout); type: cell-based, hepatitis C virus; conditions: for Genotype 1a: HCV genotype 1a replicon; for pEC50: Hepatitis C virus, read-out: Genotype 1a, HCV genotype 1a replicon
# How it was run: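 EC50 values came from a 4-parameter robust fit of fluorescence (ex 340, em 509 nm) produced by NS3-specific protease in lysates, assayed with 15 μM FRET substrate for 20 min at 37° C, after 48 or 72 hours of compound exposure (0.5% DMSO) of Huh7.5-derived APC89 genotype 1a replicon cells.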
Structure (SMILES),Genotype 1b (HCV genotype 1b replicon),Genotype 1a (HCV genotype 1a replicon),pEC50 (HCV genotype 1b replicon),pEC50 (HCV genotype 1a replicon)
COC(=O)N[C@H](C(=O)N1C[C@@H](C)C[C@H]1c1nc(-c2ccc(-c3ccc(NC(=O)c4ccc(N5CCN(C(=O)C(C)(C)C)C[C@H]5C)nc4)cc3OC(F)(F)F)cc2)c[nH]1)C(C)C [Example 1-75],D (D represents pEC50>10 (EC50<0.1 nM)),D (D represents pEC50>10 (EC50<0.1 nM)),–,–
COC(=O)N[C@H](C(=O)N1[C@@H](C)CC[C@H]1c1nc(-c2ccc(-c3cc(Cl)c(C(=O)Nc4ccc(N5CCN(C(=O)C(C)(C)C)C[C@H]5C)nc4)cc3OC(F)(F)F)cc2)c[nH]1)C1CCOCC1 [Example 18-5],D (D represents pEC50>10 (EC50<0.1 nM)),D (D represents pEC50>10 (EC50<0.1 nM)),–,–
CNC(=O)N1CCN(c2ccc(NC(=O)c3ccc(-c4ccc(-c5c[nH]c([C@@H]6C[C@@H]7CCCC[C@@H]7N6C(=O)[C@@H](NC(=O)OC)C(C)C)n5)cc4)c(OC(F)(F)F)c3)cn2)[C@H](C)C1 [Example 6-11],–,–,> 10.00,9.00 to 10.00
COC(=O)N[C@H](C(=O)N1C[C@@H](C)C[C@H]1c1nc(-c2ccc(-c3cc(F)c(NC(=O)c4ccc(N5CCN(C(=O)[C@H]6CC6(C)C)C[C@H]5C)nc4)cc3F)cc2)c[nH]1)C(C)C [Example 1-81],D (D represents pEC50>10 (EC50<0.1 nM)),D (D represents pEC50>10 (EC50<0.1 nM)),–,–
COC(=O)N[C@H](C(=O)N1C[C@@H](C)C[C@H]1c1nc(-c2ccc(-c3ccc(C(=O)Nc4ccc(N5CCN(C(=O)C(C)(C)C)C[C@H]5C)nc4)cc3OC(F)(F)F)cc2)c[nH]1)C1CCOCC1 [Example 22-3],D (D represents pEC50>10 (EC50<0.1 nM)),D (D represents pEC50>10 (EC50<0.1 nM)),–,–
COC(=O)N[C@H](C(=O)N1C[C@@H](C)C[C@H]1c1nc(-c2ccc(-c3cc(F)c(NC(=O)c4ccc(N5CCN(C(=O)C(C)(C)C)C[C@H]5C)nc4)cc3F)cc2)c[nH]1)C(C)C [Example 1-82],D (D represents pEC50>10 (EC50<0.1 nM)),"C (C represents pEC50 between and 9 and about 10, (EC50 between 1 nM and 0.1 nM))",–,–
COC(=O)N[C@H](C(=O)N1C[C@@H](C)C[C@H]1c1nc(-c2ccc(-c3cc(Cl)c(NC(=O)c4ccc(N5CCN(C(=O)C(C)(C)C)[C@@H](C)C5)nc4)cc3OC(F)(F)F)cc2)c[nH]1)C1CCOCC1 [Example 20-5],D (D represents pEC50>10 (EC50<0.1 nM)),D (D represents pEC50>10 (EC50<0.1 nM)),–,–
COC(=O)N[C@H](C(=O)N1[C@@H](C)CC[C@H]1c1nc(-c2ccc(-c3cc(Cl)c(NC(=O)c4ccc(N5CCN(C(=O)C(C)(C)C)C[C@H]5C)nc4)cc3OC(F)(F)F)cc2)c[nH]1)C(C)C [Example 17-3],D (D represents pEC50>10 (EC50<0.1 nM)),D (D represents pEC50>10 (EC50<0.1 nM)),–,–
COC(=O)N[C@H](C(=O)N1C[C@@H](OC)C[C@H]1c1nc(-c2ccc(-c3cc(Cl)c(C(=O)Nc4ccc(N5CCN(C(=O)C(C)(C)C)C[C@H]5C)nc4)cc3OC(F)(F)F)cc2)c[nH]1)C1CCOCC1 [Example 22-16],D (D represents pEC50>10 (EC50<0.1 nM)),D (D represents pEC50>10 (EC50<0.1 nM)),–,–
COC(=O)N[C@H](C(=O)N1C[C@@H](C)C[C@H]1c1nc(-c2ccc(-c3ccc(C(=O)Nc4ccc(N5C[C@H](C)N(C(=O)[C@H]6CC6(C)C)C[C@H]5C)nc4)cc3OC(F)(F)F)cc2)c(Cl)[nH]1)C(C)C [Example 4-10],D (D represents pEC50>10 (EC50<0.1 nM)),D (D represents pEC50>10 (EC50<0.1 nM)),–,–
COC(=O)NC(C(=O)N1CC(OC)CC1c1nc(-c2ccc(-c3ccc(NC(=O)c4ccc(N5CCN(C(=O)C(C)(C)CO)CC5C)nc4)cc3OC(F)(F)F)cc2)c[nH]1)C(C)O (stereo not drawn) [Example 16-15],D (D represents pEC50>10 (EC50<0.1 nM)),"C (C represents pEC50 between and 9 and about 10, (EC50 between 1 nM and 0.1 nM))",–,–
COC(=O)N[C@H](C(=O)N1C[C@@H](C)C[C@H]1c1nc(-c2ccc(-c3cc(Cl)c(NC(=O)c4ccc(N5CCN(C(=O)C(C)(C)CO)C[C@H]5C)nc4)cc3OC(F)(F)F)cc2)c[nH]1)[C@H](C)O [Example 13-17],–,–,> 10.00,> 10.00
COC(=O)N[C@H](C(=O)N1C[C@@H](C)C[C@H]1c1nc(-c2ccc(-c3cc(Cl)c(C(=O)Nc4ccc(N5CCN(C(=O)C(C)(C)C)C[C@@H]5C)nc4)cc3OC(F)(F)F)cc2)c[nH]1)C1CCOCC1 [24-1],D (D represents pEC50>10 (EC50<0.1 nM)),"C (C represents pEC50 between and 9 and about 10, (EC50 between 1 nM and 0.1 nM))",–,–
COC(=O)N[C@H](C(=O)N1C[C@@H](C)C[C@H]1c1nc(-c2ccc(-c3cc(Cl)c(NC(=O)c4ccc(N5CCN(C(=O)C(C)(C)C)C[C@H]5C)nc4)cc3OC(F)(F)F)cc2)c(CO)[nH]1)C1CCOCC1 [Example 20-2],D (D represents pEC50>10 (EC50<0.1 nM)),D (D represents pEC50>10 (EC50<0.1 nM)),–,–
COC(=O)N[C@H](C(=O)N1C[C@@H](C)C[C@H]1c1nc(-c2ccc(-c3cc(Cl)c(C(=O)Nc4ccc(N5CCN(C(=O)[C@H]6CC6(C)C)C[C@H]5C)nc4)cc3OC(F)(F)F)cc2)c[nH]1)C1CCOCC1 [Example 22-5],D (D represents pEC50>10 (EC50<0.1 nM)),D (D represents pEC50>10 (EC50<0.1 nM)),–,–
COC(=O)N[C@H](C(=O)N1C[C@@H](C)C[C@H]1c1nc(-c2ccc(-c3cc(Cl)c(NC(=O)c4ccc(N5CCN(C(=O)C(C)(C)CO)C[C@H]5C)nc4)cc3OC(F)(F)F)cc2)c(CO)[nH]1)C1CCOCC1 [Example 20-3],D (D represents pEC50>10 (EC50<0.1 nM)),D (D represents pEC50>10 (EC50<0.1 nM)),–,–
COC(=O)N[C@H](C(=O)N1C[C@@H](C)C[C@H]1c1nc(-c2ccc(-c3ccc(C(=O)Nc4ccc(N5C[C@H](C)N(C(=O)C6CC6C)C[C@H]5C)nc4)cc3OC(F)(F)F)cc2)c[nH]1)C(C)C (stereo partly drawn) [Example 4-17],D (D represents pEC50>10 (EC50<0.1 nM)),"C (C represents pEC50 between and 9 and about 10, (EC50 between 1 nM and 0.1 nM))",–,–
COC(=O)N[C@H](C(=O)N1C[C@@H](C)C[C@H]1c1nc(-c2ccc(-c3cc(Cl)c(C(=O)Nc4ccc(N5CCN(C(=O)C(C)(C)CO)C[C@H]5C)nc4)cc3OC(F)(F)F)cc2)c(Cl)[nH]1)C1CCOCC1 [Example 22-9],–,–,> 10.00,> 10.00
COC(=O)N[C@H](C(=O)N1C[C@@H](OC)C[C@H]1c1nc(-c2ccc(-c3cc(F)c(NC(=O)c4ccc(N5CCN(C(=O)C(C)(C)CO)C[C@H]5C)nc4)cc3OC(F)(F)F)cc2)c[nH]1)C1CCOCC1 [Example 28-3],D (D represents pEC50>10 (EC50<0.1 nM)),D (D represents pEC50>10 (EC50<0.1 nM)),–,–
COC(=O)N[C@H](C(=O)N1[C@@H](C)CC[C@H]1c1nc(-c2ccc(-c3cc(Cl)c(C(=O)Nc4ccc(N5CCN(C(=O)C(C)(C)C)C[C@H]5C)nc4)cc3OC(F)(F)F)cc2)c[nH]1)C1C[C@@H](C)O[C@@H](C)C1 (stereo partly drawn) [Example 18-6],D (D represents pEC50>10 (EC50<0.1 nM)),D (D represents pEC50>10 (EC50<0.1 nM)),–,–
COC(=O)N[C@H](C(=O)N1C[C@@H](OC)C[C@H]1c1nc(-c2ccc(-c3cc(Cl)c(NC(=O)c4ccc(N5C[C@H](C)N(C(=O)C(C)(C)C)C[C@H]5C)nc4)cc3OC(F)(F)F)cc2)c[nH]1)C1CCOCC1 [Example 28-7],D (D represents pEC50>10 (EC50<0.1 nM)),D (D represents pEC50>10 (EC50<0.1 nM)),–,–
COC(=O)N[C@H](C(=O)N1C[C@@H](C)C[C@H]1c1nc(-c2ccc(-c3cc(F)c(NC(=O)c4ccc(N5C[C@H](C)N(C(=O)C6CC6)C[C@H]5C)nc4)cc3OC(F)(F)F)cc2)c[nH]1)C(C)C [Example 1-15],D (D represents pEC50>10 (EC50<0.1 nM)),D (D represents pEC50>10 (EC50<0.1 nM)),–,–
COC(=O)N[C@H](C(=O)N1C[C@@H](C#N)C[C@H]1c1nc(-c2ccc(-c3cc(Cl)c(NC(=O)c4ccc(N5CCN(C(=O)C(C)(C)CO)C[C@H]5C)nc4)cc3OC(F)(F)F)cc2)c[nH]1)C(C)C [Example 15-12],–,–,> 10.00,> 10.00
"COC(=O)N[C@H](C(=O)N1C[C@@H](C)C[C@H]1c1nc(-c2ccc(-c3cc(Cl)c(NC(=O)c4ccc(N5C[C@H](C)N(C(=O)c6c[nH]cn6)C[C@H]5C)nc4)cc3C(F)(F)F)cc2)c[nH]1)C(C)C [Example 3, [(S)-1-((2S,4S)-2-{4-[5′-Chloro-4′-({6-[(2R,5S)-4-(1H-imidazole-4-carbonyl)-2,5-dimethyl-piperazin-1-yl]-pyridine-3-carbonyl}-amino)-2′-trifluoromethyl-biphenyl-4-yl]-1H-imidazol-2-yl}-4-methyl-pyrrolidine-1-carbonyl)-2-methyl-propyl]-carbamic acid methyl ester]",–,–,> 10.00,> 10.00
CNC(=O)N1CCC[C@@]1(C)C(=O)N1CCN(c2ccc(NC(=O)c3ccc(-c4ccc(-c5c[nH]c([C@@H]6C[C@H](C)CN6C(=O)[C@@H](NC(=O)OC)C(C)C)n5)cc4)c(OC(F)(F)F)c3)cn2)[C@H](C)C1 [Example 4-6],D (D represents pEC50>10 (EC50<0.1 nM)),D (D represents pEC50>10 (EC50<0.1 nM)),–,–
COC(=O)N[C@H](C(=O)N1C[C@@H](N(C)C)C[C@H]1c1nc(-c2ccc(-c3ccc(NC(=O)c4ccc(N5CCN(C(=O)c6c[nH]cn6)C[C@H]5C)nc4)cc3)cc2)c[nH]1)C(C)C [Example 2-1],D (D represents pEC50>10 (EC50<0.1 nM)),"C (C represents pEC50 between and 9 and about 10, (EC50 between 1 nM and 0.1 nM))",–,–
COC(=O)N[C@H](C(=O)N1C[C@@H](C)C[C@H]1c1nc(-c2ccc(-c3ccc(NC(=O)c4ccc(N5CCN(C(=O)[C@H]6CC6(C)C)C[C@H]5C)nc4)cc3C(F)(F)F)cc2)c[nH]1)C(C)C [Example 1-62],D (D represents pEC50>10 (EC50<0.1 nM)),D (D represents pEC50>10 (EC50<0.1 nM)),–,–
